Patent US7652047B2, “Phenylamino isothiazole carboxamidines as MEK inhibitors” (Ardea Biosciences, Inc., priority 2005, dated 2010)

molecular target: T1, MEK1^CA (human GST-MEK1, constitutively active, Ser218Asp and Ser222Asp) (Homo sapiens, UniProt Q02750, S218D/S222D); experiment: MEK1 enzymatic activity assay (MEK1^CA / ERK2 / MBP, [γ-33P]ATP incorporation); format: biochemical; settings: Table 1, compounds of formula I; read-out: Avg IC50
T1 construct: GST; made in house; host or cells: Escherichia coli
Text: Materials and preparation of reagents: Human GST-MEK1 and the constitutively active allele GST-MEK1^CA (harboring the mutations Ser218Asp and Ser222Asp) were subcloned into the […] expression vector pGEM4Z (Promega, Madison, Wis.) from the wild type human MEK1 cDNA. GST-MEK1^CA was expressed in Escherichia coli and partially purified using Glutathione Sepharose 4B affinity resin (Amersham Pharmacia Biotech, Piscataway, N.J.). The ERK2 allele was subcloned from MAPK2/Erk2 cDNA (wild type) in pUSEamp (Upstate Biotechnology, Inc., Waltham, Mass.) into the vector pET21a (Novagen, Madison, Wis.) resulting in an N-terminal histidine-tagged mouse ERK2 allele. […] Myelin basic protein (MBP) was purchased from Gibco BRL (Rockville, Md.). EasyTides adenosine 5′-triphosphate (ATP) ([γ-^33P]) (NEN Perkin Elmer, Wellesley, Mass.) was the source of radiolabel for all kinase reactions. Activated Raf-1 (truncated) and activated MAPKinase 2/ERK2 were purchased from Upstate, Inc. (Lake Placid, N.Y.). 4-20% Criterion Precast gels were purchased from Bio-Rad (Hercules, Calif.).
A typical 25-microliter assay contained 0.002 nanomoles MEK1^CA, 0.02 nanomoles ERK2, 0.25 nanomoles MBP, 0.25 nanomoles unlabeled ATP, and 0.1 μCi [γ^33P] ATP. The screening assay essentially comprised four additions. Five μl of diluted compound were dispensed to 96-well assay plates. Ten μl of 2.5× enzyme cocktail (MEK1^CA and ERK2 only) were then added to each well followed by a pre-incubation for 30 minutes at ambient temperature. […] Finally, 100 μl of 10% trichloroacetic acid (TCA) were added and incubated for 30 minutes at room temperature to halt the reaction and precipitate radiolabeled protein products. Reaction products were harvested on glass fiber 96 well filter plates prewetted with water and 1% pyrophosphate. The filter plate was then washed 5 times with water. Water was displaced by absolute ethanol and the plate was allowed to air dry for 30 minutes at room temperature. A back seal was applied manually and 40 μl of scintillation cocktail were dispensed to each well. A top seal was applied and the plate was counted in the TopCount for two seconds per well.

T1 sequence (Q02750 whole entry S218D/S222D): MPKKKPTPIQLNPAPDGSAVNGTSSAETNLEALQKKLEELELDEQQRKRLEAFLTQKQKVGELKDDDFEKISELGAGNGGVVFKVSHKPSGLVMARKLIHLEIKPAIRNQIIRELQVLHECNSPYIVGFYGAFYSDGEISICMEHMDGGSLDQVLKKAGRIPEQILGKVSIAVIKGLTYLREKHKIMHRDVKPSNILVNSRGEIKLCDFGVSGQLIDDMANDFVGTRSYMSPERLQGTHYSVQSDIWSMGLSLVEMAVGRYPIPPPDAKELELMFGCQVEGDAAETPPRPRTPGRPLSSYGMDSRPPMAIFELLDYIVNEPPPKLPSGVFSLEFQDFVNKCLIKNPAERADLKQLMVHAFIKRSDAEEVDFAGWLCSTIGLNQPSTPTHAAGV

Structure (SMILES) | IC50 [nM]
Cc1cccc(Oc2ccc(Nc3snc(O)c3C(=N)NC(C)CO)cc2)c1 (centres unmarked) [compound 289] | 1 to 100
CC(C)N(O)C(=N)c1c(O)nsc1Nc1ccc(Oc2cc(F)cc(F)c2)cc1 [compound 421] | 1 to 100
Cc1cc(Oc2cc(F)cc(F)c2)ccc1Nc1snc(O)c1C(=N)NC(C)CO (centres unmarked) [compound 458] | 1 to 100
N=C(NO)c1c(O)nsc1Nc1ccc(Oc2cc(Cl)ccc2Cl)cc1 [compound 450] | 1 to 100
CCOC(=O)c1cccc(Nc2snc(O)c2C(=N)NC(C)C)c1 [compound 488] | > 500
N=C(NCC(O)CO)c1c(O)nsc1Nc1ccc(-c2nc3ccccc3[nH]2)cc1 (centres unmarked) [compound 512] | > 500
N=C(N[C@@H]1CCC[C@H]1O)c1c(O)nsc1Nc1ccc(Oc2ccccc2)cc1 [compound 155] | 100 to 500
N=C(NCCOc1ccccc1)c1c(O)nsc1NCC1CCCO1 (centres unmarked) [compound 113] | > 500
N=C(NCC1CCCCC1)c1c(O)nsc1Nc1ccc(Oc2ccccc2)nc1 [compound 103] | 100 to 500
CC(C)NC(=N)c1c(O)nsc1Nc1ccc(Oc2ccc(Br)cc2)c(F)c1 [compound 330] | 1 to 100
N=C(NCCO)c1c(O)nsc1Nc1ccc(Oc2ccc(F)cc2)cc1 [compound 204] | > 500
Cc1ccc(Nc2snc(O)c2C(=N)NCCN2CCOCC2)cc1 [Cpd 4] | 100 to 500
CC(C)NC(=N)c1c(O)nsc1Nc1ccc(Oc2ccc(Br)c3ccccc23)cc1 [compound 339] | 1 to 100
CC(C)c1ccc(Nc2snc(O)c2C(N)=NCC2CCCCC2)cc1 [compound 80] | > 500
Cc1cc(Oc2ccc(F)cc2Cl)ccc1Nc1snc(O)c1C(=N)NC(C)C [compound 401] | 1 to 100
COC(=O)c1ccccc1Oc1ccc(Nc2snc(O)c2C(=N)NC(C)CO)cc1 (centres unmarked) [compound 493] | 1 to 100
CC(C)NC(=N)c1c(O)nsc1Nc1ccc(Oc2ccc(F)cc2F)c(F)c1 [compound 398] | 100 to 500
N=C(NC1CCCCC1)c1c(O)nsc1Nc1ccc(Oc2ccccc2)cc1 [Cpd 11] | 1 to 100
Cc1ccc(Oc2ccc(Nc3snc(O)c3C(=N)NC(C)C)cc2)cn1 [compound 259] | > 500
N=C(NC1CCC1)c1c(O)nsc1Nc1ccc(Oc2ccccc2)cc1 [Cpd 16] | 1 to 100
Cc1ccccc1Oc1ccc(Nc2snc(O)c2C(=N)NC(C)CO)cc1C (centres unmarked) [compound 325] | > 500
N=C(NCC1CCCCC1)c1c(O)nsc1Nc1ccc(/N=N/c2ccccc2)cc1 [compound 128] | 100 to 500
CC(C)NC(=N)c1c(O)nsc1Nc1ccc(Oc2cc(Cl)ccc2Cl)cc1 [compound 313] | > 500

Structure (SMILES) | IC50 [nM]
N=C(NCCO)c1c(O)nsc1Nc1ccc(Oc2ccc(Cl)cc2)cc1 [compound 192] | 100 to 500
CC(C)NC(=N)c1c(O)nsc1Nc1ccc(Oc2cc(F)cc(F)c2Cl)c(F)c1 [compound 328] | 1 to 100
Cc1cc(Oc2cc(F)cc(F)c2)ccc1Nc1snc(O)c1C(=N)NC(C)C [compound 457] | 1 to 100
CC(CO)NC(=N)c1c(O)nsc1Nc1ccc(Oc2ccccc2Br)c(Cl)c1 (centres unmarked) [compound 280] | 1 to 100
N=C(c1c(O)nsc1Nc1ccc(Oc2cc(F)cc(F)c2)cc1)N1CCCCC1 [compound 417] | > 500
N=C(NCC(O)CO)c1c(O)nsc1Nc1ccc([C@H]2CC[C@H](O)CC2)cc1 (some centres unmarked) [compound 196] | > 500
CC(C)NC(=N)c1c(O)nsc1Nc1ccc(Oc2ccc(C(F)(F)F)cc2)c(Cl)c1 [compound 388] | 100 to 500
N=C(NCC(O)CO)c1c(O)nsc1Nc1cc(F)c(Oc2cc(Cl)ccc2Cl)cc1F (centres unmarked) [compound 477] | 1 to 100
CC(C)C[C@H](CO)NC(=N)c1c(O)nsc1Nc1ccc(Oc2ccccc2)cc1 [compound 163] | 100 to 500
Cc1cc(C)cc(Oc2ccc(Nc3snc(O)c3C(=N)NC(C)CO)cc2)c1 (centres unmarked) [compound 268] | 100 to 500
Cc1ccc(Cl)cc1Oc1ccc(Nc2snc(O)c2C(=N)NC(C)CO)cc1 (centres unmarked) [compound 304] | 1 to 100
CC(C)NC(=N)c1c(O)nsc1Nc1ccc(S(=O)(=O)c2ccccc2)cc1 [compound 244] | > 500
N=C(NCC(O)CO)c1c(O)nsc1Nc1ccccc1F (centres unmarked) [compound 69] | > 500
C=CCNC(=N)c1c(O)nsc1Nc1ccc(Oc2ccccc2)cc1 [compound 200] | 1 to 100
N=C(NCC(O)CO)c1c(O)nsc1Nc1ccc(Cl)cc1 (centres unmarked) [compound 101] | 100 to 500
CCOC(=O)c1cccc(Oc2ccc(Nc3snc(O)c3C(=N)NC(C)C)cc2)c1 [compound 410] | 1 to 100
N=C(NCC1CCCCC1)c1c(O)nsc1Nc1ccc(Oc2ccccc2)cc1 [compound 37] | 1 to 100
N=C(NCCO)c1c(O)nsc1Nc1ccc(Oc2ccccc2Cl)cc1 [compound 213] | 1 to 100
N=C(NCC(O)CO)c1c(O)nsc1Nc1ccc(CO)cc1 (centres unmarked) [compound 64] | > 500
CCCC1CCC(c2ccc(Nc3snc(O)c3C(=N)NCC3CCCCC3)cc2)CC1 (centres unmarked) [compound 58] | > 500
COC(=O)c1cccc(Nc2snc(O)c2C(=N)NCC(O)O)c1C [compound 499] | 100 to 500
N=C(NCCN1CCOCC1)c1c(O)nsc1Nc1ccc(Oc2ccc(Cl)cc2Cl)cc1 [compound 426] | 1 to 100
CN1CCN(C(=N)c2c(O)nsc2Nc2ccc(Oc3cc(F)cc(F)c3)cc2)CC1 [compound 419] | > 500

Structure (SMILES) | IC50 [nM]
Cc1cc(Oc2cccc(F)c2F)ccc1Nc1snc(O)c1C(=N)N(O)C(C)C [compound 501] | 100 to 500
CCCCCNc1snc(O)c1C(=N)NCC1CCCCC1 [compound 121] | > 500
N=C(NCCCN1CCCC1=O)c1c(O)nsc1Nc1ccc(Oc2ccccc2)cc1 [compound 39] | 1 to 100
CC(CO)NC(=N)c1c(O)nsc1Nc1cc(Cl)cc(Cl)c1 (centres unmarked) [compound 233] | 100 to 500
CC(=O)Oc1nsc(Nc2ccc(Oc3ccccc3)cc2)c1C(=N)NC(C)C [compound 185] | 100 to 500
Cc1ccc(Nc2snc(O)c2C(=N)NN2CCCCC2)cc1 [Cpd 7] | 100 to 500
CC(C)CC(C)NC(=N)c1c(O)nsc1Nc1ccc(Oc2ccccc2)cc1 (centres unmarked) [compound 35] | 100 to 500
N=C(NCCc1cccc(F)c1)c1c(O)nsc1Nc1ccc(Oc2ccccc2)cc1 [Cpd 17] | 100 to 500
CC(C)NC(=N)c1c(O)nsc1Nc1ccc(Oc2cc(F)ccc2Cl)c(Cl)c1 [compound 382] | 1 to 100
N=C(NCC1CCCCC1)c1c(O)nsc1Nc1ccc(Cc2ccccc2)cc1 [compound 127] | 100 to 500
Cc1cccc(Cl)c1Oc1ccc(Nc2snc(O)c2C(=N)NC(C)CO)cc1 (centres unmarked) [compound 343] | > 500
N=C(NCC(O)CO)c1c(O)nsc1Nc1ccc(Br)cc1 (centres unmarked) [compound 55] | 100 to 500
N=C(NCCCCCCO)c1c(O)nsc1Nc1ccc(Oc2ccccc2)cc1 [compound 32] | 1 to 100
N=C(NO)c1c(O)nsc1Nc1ccc(Oc2ccccc2)cc1 [compound 130] | 1 to 100
CC(CO)NC(=N)c1c(O)nsc1Nc1ccc(/N=N/c2ccccc2)cc1 (centres unmarked) [compound 219] | 1 to 100
Cc1ccc(F)c(Oc2ccc(Nc3snc(O)c3C(=N)NC(C)C)cc2)c1 [compound 347] | 1 to 100
CC(CO)NC(=N)c1c(O)nsc1Nc1ccc(-n2cccn2)cc1 (centres unmarked) [compound 315] | > 500
CC(CO)N=C(N)c1c(O)nsc1Nc1ccc(Oc2cc(C(F)(F)F)ccc2I)cc1 (centres unmarked) [compound 385] | 1 to 100
CC(C)NC(=N)c1c(O)nsc1Nc1ccc(Oc2ccccc2Cl)cc1 [compound 212] | 100 to 500
CC(CO)NC(=N)c1c(O)nsc1Nc1ccc(Oc2ccc(C(F)(F)F)cc2)c(F)c1 (centres unmarked) [compound 378] | 100 to 500
CC(C)N(O)C(=N)c1c(O)nsc1Nc1ccc(Oc2cc(Cl)ccc2Cl)cc1 [compound 455] | 1 to 100
N=C(NCC(O)CO)c1c(O)nsc1Nc1ccc(Cc2ccccc2)cc1 (centres unmarked) [compound 129] | 100 to 500
CCCCCCCNC(=N)c1c(O)nsc1Nc1ccc(Oc2ccccc2)cc1 [Cpd 10] | 1 to 100

same assay, conditions: Table 2, Ar1-A contains an amido or indolo group; read-out: IC 50

Structure (SMILES) | IC50 [nM]
N=C(NCCCO)c1c(O)nsc1Nc1ccc(C(=O)N2CCc3ccccc32)cc1 [E-11] | 1 to 200
CC(CO)NC(=N)c1c(O)nsc1Nc1ccc(C(=O)N2CCc3ccccc32)cc1 (centres unmarked) [E-16] | 1 to 200
CC(CO)NC(=N)c1c(O)nsc1Nc1ccc(C(=O)N2CCN(C)CC2)cc1 (centres unmarked) [E-17] | > 1000

same assay, conditions: Table 3, benzamides of formula X; read-out: IC 50

Structure (SMILES) | IC50 [nM]
CC(CO)NC(=N)c1c(O)nsc1Nc1ccc(C(=O)Nc2ccccc2)cc1 (centres unmarked) [drawing 812] | 1 to 100

same assay, conditions: Table 4, R' is (CH2)1 or 2-G; read-out: IC50

Structure (SMILES) | IC50 [nM]
N=C(NCC1CCCCC1)c1c(O)nsc1Nc1ccc(Sc2ccccc2)cc1 [drawing 826] | 1 to 100
